Values of other authors as cited in PubChem BioAssay AID1259410 (Chemical Carcinogenesis Research Information System (CCRIS), 2018).

Tested on: rodent tumor promotion studies, tumor incidence
Assay: CCRIS tumor promotion studies
[1] = Carcinogen: 7,12-DIMETHYLBENZ(A)ANTHRACENE, Doses [Carcinogen]: TOP, Route [Carcinogen]: DERMAL, Route [Promoter]: DERMAL, Species: MOUSE, Strain/Sex: FEMALE

OCc1c[nH]c2ccccc12
outcome (Carcinogen: DIETHYLNITROSAMINE, 55-18-5, N-METHYL-N-NITROSOUREA, 684-93-5, DIHYDROXY-DI-N-PROPYLNITROSAMINE, 53069-64-6, Carcinogen: DIETHYLNITROSAMINE, 55-18-5, N-METHYL-N-NITROSOUREA, 684-93-5, DIHYDROXY-DI-N-PROPYLNITROSAMINE, 53069-64-6, Doses [Carcinogen]: 100 MG/KG BW DEN ONCE THEN 20 MG/KG BW MNU ONCE ON DAYS 5, 8, 11, AND 14 FOLLOWED BY 0.1% DHEN IN DRINKING WATER FOR 2 W, Doses [Promoter]: 0, 0.25% IN DIET FOR 20 WK BEGINNING POST CARCINOGEN TREATMENT (STUDY DURATION: 52 WK), Route [Carcinogen]: INTRAPERITONEAL, INTRAPERITONEAL, ORAL, Route [Carcinogen]: INTRAPERITONEAL, INTRAPERITONEAL, ORAL, Route [Promoter]: ORAL, Species: RAT, Strain/Sex: SPRAGUE-DAWLEY/MALE): thyroid gland: follicular cell adenoma or carcinoma | outcome (Carcinogen: DIETHYLNITROSAMINE, 55-18-5, N-METHYL-N-NITROSOUREA, 684-93-5, DIHYDROXY-DI-N-PROPYLNITROSAMINE, 53609-64-6, Carcinogen: DIETHYLNITROSAMINE, 55-18-5, N-METHYL-N-NITROSOUREA, 684-93-5, DIHYDROXY-DI-N-PROPYLNITROSAMINE, 53609-64-6, Doses [Carcinogen]: 100 MG/KG BW DEN ONCE, 20 MG/KG BW MNU 2/WK FOR 2 WK, THEN 0.1% DHPN IN DRINKING WATER FOR 2 WK, Doses [Promoter]: O, 0.25% IN DIET FOR 20 WK BEGINNING POST CARCINOGEN TREATMENT (STUDY DURATION: 52 WK), Route [Carcinogen]: INTRAPERITONEAL, INTRAPERITONEAL, ORAL, Route [Carcinogen]: INTRAPERITONEAL, INTRAPERITONEAL, ORAL, Route [Promoter]: ORAL, Species: RAT, Strain/Sex: SPRAGUE-DAWLEY/MALE): thyroid gland: adenoma and adenocarcinoma | outcome (Doses [Carcinogen]: 0.5 PPM FOR 30 MIN, Doses [Promoter]: 0, 1000 PPM IN DIET BEGINNING 14 WK POST CARCINOGEN DOSE (STUDY DURATION: 12 MO), Route [Carcinogen]: IMMERSION, Route [Promoter]: ORAL, Species: FISH, Strain/Sex: RAINBOW TROUT): liver: tumor | outcome (Doses [Carcinogen]: 12.5 PPB IN WATER FOR 30 MIN, Doses [Promoter]: 0, 2000 PPM IN DIET BEGINNING 4 WK POST CARCINOGEN DOSE AND CONTINUING FOR DURATION OF STUDY (STUDY DURATION: 36 WK), Route [Carcinogen]: IMMERSION, Route [Promoter]: ORAL, Species: FISH, Strain/Sex: RAINBOW TROUT): liver: tumor | outcome (Doses [Carcinogen]: 12.5 PPB IN WATER FOR 30 MIN, Doses [Promoter]: 0, 2000 PPM IN DIET BEGINNING 12 WK POST CARCINOGEN DOSE AND CONTINUING FOR 12 WK FOLLOWED BY CONTROL DIET FOR 12 WK (ST, Route [Carcinogen]: IMMERSION, Route [Promoter]: ORAL, Species: FISH, Strain/Sex: RAINBOW TROUT): liver: tumor | outcome (Doses [Carcinogen]: 12.5 PPB IN WATER FOR 30 MIN, Doses [Promoter]: 0, 2000 PPM IN DIET BEGINNING 12 WK POST CARCINOGEN DOSE AND CONTINUING FOR DURATION OF STUDY (STUDY DURATION: 36 WK), Route [Carcinogen]: IMMERSION, Route [Promoter]: ORAL, Species: FISH, Strain/Sex: RAINBOW TROUT): liver: tumor | outcome (Doses [Carcinogen]: 12.5 PPB IN WATER FOR 30 MIN, Doses [Promoter]: 0, 2000 PPM IN DIET FOR 24 WK BEGINNING POST CARCINOGEN DOSE (STUDY DURATION: 36 WK), Route [Carcinogen]: IMMERSION, Route [Promoter]: ORAL, Species: FISH, Strain/Sex: RAINBOW TROUT): liver: tumor | outcome (Doses [Carcinogen]: 12.5 PPB IN WATER FOR 30 MIN, Doses [Promoter]: 0, 2000 PPM IN DIET FOR 36 WK BEGINNING POST CARCINOGEN DOSE (STUDY DURATION: 36 WK), Route [Carcinogen]: IMMERSION, Route [Promoter]: ORAL, Species: FISH, Strain/Sex: RAINBOW TROUT): liver: tumor | outcome (Doses [Carcinogen]: 50-250 PPM IN WATER FOR 30 MIN, Doses [Promoter]: 0, 500, 750, 1000, 1250 PPM IN DIET BEGINNING 3 MO POST CARCINOGEN TREATMENT (STUDY DURATION: 13 MO), Doses [Promoter]: 0, 500, 750, 1000, 1250 PPM IN DIET BEGINNING 3 MO POST CARCINOGEN TREATMENT (STUDY DURATION: 13 MO), Route [Carcinogen]: IMMERSION, Route [Promoter]: ORAL, Species: FISH, Strain/Sex: RAINBOW TROUT/MALE, FEMALE): liver: tumor | outcome (Doses [Carcinogen]: 50 PPB IN WATER FOR 30 MIN, Doses [Promoter]: 0, 2000 PPM IN DIET BEGINNING POST CARCINOGEN DOSE AND ADMINISTERED 2 D/WK FOR DURATION OF STUDY (STUDY DURATION: 36 WK), Route [Carcinogen]: IMMERSION, Route [Promoter]: ORAL, Species: FISH, Strain/Sex: RAINBOW TROUT): liver: tumor | outcome (Doses [Carcinogen]: 50 PPB IN WATER FOR 30 MIN, Doses [Promoter]: 0, 2000 PPM IN DIET BEGINNING POST CARCINOGEN DOSE AND ADMINISTERED FOR 1 WK ALTERNATING WEEKLY WITH CONTROL DIET (STUDY, Route [Carcinogen]: IMMERSION, Route [Promoter]: ORAL, Species: FISH, Strain/Sex: RAINBOW TROUT): liver: tumor

N[C@@H](Cc1c[nH]c2ccccc12)C(=O)O
outcome (Carcinogen: N-(4-(5-NITRO-2-FURYL)-2-THIAZOLYL)FORMAMIDE, Doses [Carcinogen]: DIET, Doses [Promoter]: IN DIET, Route [Carcinogen]: ORAL, Route [Promoter]: ORAL, Species: MOUSE, Strain/Sex: FEMALE): urinary bladder

O=C1c2c(O)cccc2Cc2cccc(O)c21
outcome (Carcinogen: 7,12-DIMETHYLBENZ(A)ANTHRACENE, Doses [Carcinogen]: TOP, Route [Carcinogen]: DERMAL, Route [Promoter]: DERMAL, Species: MOUSE, Strain/Sex: MALE,FEMALE): integumentary system (skin)

C=CC(N)=O
outcome (Carcinogen: METHYLNITROSOUREA [684-93-5], Doses [Carcinogen]: 50 MG/KG BW ONCE, Doses [Promoter]: 0, 20, 40 PPM IN DRINKING WATER AFTER CARCINOGEN ADMINISTRATION (STUDY DURATION: 30 WK), Doses [Promoter]: 0, 20, 40 PPM IN DRINKING WATER AFTER CARCINOGEN ADMINISTRATION (STUDY DURATION: 30 WK), Route [Carcinogen]: IP INJECTION, Route [Promoter]: DRINKING WATER, Species: RAT, Strain/Sex: SPRAGUE-DAWLEY/FEMALE (20/GROUP)): mammary gland: adenocarcinoma (significant increase in tumor incidence at 40 ppm

O=P(O)(O)O
outcome (Carcinogen: N-BUTYL-N-(4-HYDROXYBUTYL)NITROSAMINE, 3817-11-6, Doses [Carcinogen]: 0.05% IN DRINKING WATER FOR 4 WK, Doses [Promoter]: 0, 1.4% IN DIET FOR 32 WK BEGINNING POST CARCINOGEN TREATMENT (STUDY DURATION: 36 WK), Route [Carcinogen]: ORAL, Route [Promoter]: ORAL, Species: RAT, Strain/Sex: F344/MALE): urinary bladder: papilloma | outcome (Carcinogen: N-ETHYL-N-HYDROXYETHYLNITROSAMINE, 13147-25-6, Doses [Carcinogen]: 1000 PPM IN DIET FOR 2 WK, Doses [Promoter]: 0, 10% IN DIET OF UNILATERALLY NEPHRECTOMIZED RATS BEGINNING POST CARCINOGEN TREATMENT AND CONTINUING FOR 18 WK (STUDY D, Route [Carcinogen]: ORAL, Route [Promoter]: ORAL, Species: RAT, Strain/Sex: WISTAR/MALE): kidney: renal cell tumor | outcome (Carcinogen: N-ETHYL-N-HYDROXYETHYLNITROSAMINE, 13147-25-6, Doses [Carcinogen]: 1000 PPM IN DIET FOR 2 WK, Doses [Promoter]: 0, 50000 PPM IN DIET FOR 18 WK ADMINISTERED TO UNILATERALLY NEPHRECTOMIZED RATS (STUDY DURATION: 20 WK), Route [Carcinogen]: ORAL, Route [Promoter]: ORAL, Species: RAT, Strain/Sex: WISTAR/MALE): kidney: renal cell tumor

CCCCCCCCCC
outcome [1]: integumentary system (skin) | outcome (Carcinogen: BENZO(A)PYRENE, Doses [Carcinogen]: TOP, Route [Carcinogen]: DERMAL, Route [Promoter]: DERMAL, Species: MOUSE, Strain/Sex: FEMALE): integumentary system (skin)

C[C@H](CCC(=O)O)[C@H]1CC[C@H]2[C@@H]3[C@H](O)C[C@@H]4C[C@H](O)CC[C@]4(C)[C@H]3C[C@H](O)[C@]12C
outcome (Carcinogen: AZOXYMETHANE, 25843-45-2, Doses [Carcinogen]: 15 MG/KG BW 1/WK FOR 2 WK, Doses [Promoter]: 0, 0.4% IN THE DIET FOR 28 WK BEGINNING 2 WK PRIOR TO CARCINOGEN TREATMENT (STUDY DURATION: 30 WK), Route [Carcinogen]: SUBCUTANEOUS, Route [Promoter]: ORAL, Species: RAT, Strain/Sex: F344/MALE): colon: tumor | outcome (Doses [Carcinogen]: IR, Route [Carcinogen]: RECTAL, Route [Promoter]: RECTAL, Species: RAT, Strain/Sex: FEMALE): colon

Oc1cc(Cl)c(Cl)cc1Cl
outcome [1]: integumentary system (skin)

C=C(/C=C/C=C(/CO)[C@@H]1CC[C@]2([C@H](CCCO)/C(=C(/C)C=O)CC[C@]2(C)O)[C@@H]1O)CCC=C(C)C
outcome (Carcinogen: 7,12-DIMETHYLBENZ[A]ANTHRACENE, 57-97-6, Doses [Carcinogen]: 100 UG ONCE, Doses [Promoter]: 0, 400 NMOL 2/WK FOR 19 WK BEGINNING 1WK POST CARCINOGEN DOSE (STUDY DURATION: 20 WK), Route [Carcinogen]: DERMAL, Route [Promoter]: DERMAL, Species: MOUSE, Strain/Sex: CD-1/FEMALE): skin: tumor

Cc1ccc(O)cc1C
outcome [1]: integumentary system (skin)
